Patent publication US11053218B2, “3-(1-oxoisoindolin-2-yl)piperidine-2,6-dione derivatives and uses thereof” (Novartis AG, priority 2017, dated 2021)
Like-named read-outs stand apart in the source and are kept apart here.

Key:
Assay type in all cases: cell-based
[1] = target: IKZF2 (Homo sapiens, UniProt Q96SW2+Q9UKS7); experiment: Prolabel quantification of IKZF2 protein levels in 293GT cells
[2] = target: IKZF1 (Homo sapiens, UniProt Q13422+Q96SW2); experiment: Prolabel quantification of IKZF1 protein levels in 293GT cells; conditions: Prolabel assay, read-out: IKZF1 EC50
[3] = target: GSPT1 (Homo sapiens, UniProt P15170+Q96SW2); experiment: Prolabel quantification of GSPT1 protein levels in 293GT cells; conditions: Prolabel assay, read-out: GSPT1 EC50
Procedure: The Prolabel system from DiscoverX was used to develop high-throughput and quantitative assays to measure changes in IKZF1, IKZF2 and GSPT1 protein levels in response to compounds. The prolabel tag was derived from the alpha fragment of beta galactosidase and has the following protein sequence: mssnslavvlqrrdwenpgvtqlnrlaahppfaswrnseeartdrpsqqlrslnge. The complementary fragment of beta-galactosidase (from DiscoverX), is added to the prolabel tag to form an active beta galactosidase enzyme whose activity can be precisely measured. In this way, the levels of a fusion protein with the prolabel tag can be quantified in cell lysates.
Lentiviral vectors, based on the Invitrogen pLenti6.2/V5 DEST backbone, were constructed that placed the prolabel tag upstream of IKZF1, IKZF2 or GSPT1 and expressed the fusion protein from a CMV promoter.
To ensure moderate and consistent expression of the prolabel fusion proteins across all cells in the population, stable cell lines were constructed from cells expressing a single copy of the construct. Lentivirus packaged with the constructs was made using the Virapower kit from Invitrogen.
The levels of prolabel tagged fusion proteins in compound treated cell lines were measured as follows:
Day 1, Cells were diluted to 1.0×10^6 cells/ml in normal growth medium. 17.5 μL of cells were plated in each well of a solid white 384 well plate. Plates were incubated overnight in a 37° C. tissue culture incubator.
Day 2, Serial dilutions of compounds were made in 384 well plates from 10 mM stocks. 15 μL of DMSO was added to each well of a 384 well plate. In the first column 15 μL of stock compound was added. The solution was mixed and 15 μL was transferred to the next column. This was repeated until 20 two-fold dilutions were prepared. 2.5 μL of diluted compounds were transferred into 60 μL of cell culture medium in another 384 well plate, and mixed well. 2.5 μL of this mixture was added to the plated cells. The final DMSO concentration was 0.5% and the highest concentration of compound was 50 μM. Plates were incubated overnight (e.g., about 14 h, 18 h, or 24 h) in a 37° C. tissue culture incubator.
Day 3, Plates were removed from the incubator and allowed to equilibrate at rt for 30 minutes. Prolabel substrate (DiscoverX PathHunter Prolabel Detection Kit, User manual: 93-0180) was added as described by the manufacturers protocols. Plates were incubated at rt for three hours and luminescence was read using an Envision reader (Perkin Elmer) Data was analyzed and visualized using the Spotfire software package.

[4] = 24 h, 10 μM, 24 h, 293GT cells; read-out: IKZF2 % protein reduction at 10 μM, 24 h
[5] = Prolabel assay, 293GT cells; read-out: IKZF2 EC50
[6] = 10 μM, 24 h, 293GT cells; read-out: IKZF2 % protein reduction at 10 μM, 24 h

Chain of GSPT1 (P15170 whole entry, the tested form may be a part): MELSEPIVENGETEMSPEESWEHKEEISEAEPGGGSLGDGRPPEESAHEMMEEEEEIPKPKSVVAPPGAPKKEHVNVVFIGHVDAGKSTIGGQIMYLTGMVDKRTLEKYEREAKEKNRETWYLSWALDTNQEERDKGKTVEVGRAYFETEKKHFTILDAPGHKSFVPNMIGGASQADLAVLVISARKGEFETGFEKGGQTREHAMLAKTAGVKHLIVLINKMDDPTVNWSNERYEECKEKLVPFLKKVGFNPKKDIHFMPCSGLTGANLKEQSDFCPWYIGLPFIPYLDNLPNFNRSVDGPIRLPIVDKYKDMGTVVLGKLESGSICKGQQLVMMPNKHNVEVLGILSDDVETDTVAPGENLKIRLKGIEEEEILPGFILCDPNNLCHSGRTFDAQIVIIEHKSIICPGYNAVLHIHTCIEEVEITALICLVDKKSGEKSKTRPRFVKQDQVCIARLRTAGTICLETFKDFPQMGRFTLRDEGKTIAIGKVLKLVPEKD
Chain of GSPT1 (Q96SW2 whole entry, the tested form may be a part): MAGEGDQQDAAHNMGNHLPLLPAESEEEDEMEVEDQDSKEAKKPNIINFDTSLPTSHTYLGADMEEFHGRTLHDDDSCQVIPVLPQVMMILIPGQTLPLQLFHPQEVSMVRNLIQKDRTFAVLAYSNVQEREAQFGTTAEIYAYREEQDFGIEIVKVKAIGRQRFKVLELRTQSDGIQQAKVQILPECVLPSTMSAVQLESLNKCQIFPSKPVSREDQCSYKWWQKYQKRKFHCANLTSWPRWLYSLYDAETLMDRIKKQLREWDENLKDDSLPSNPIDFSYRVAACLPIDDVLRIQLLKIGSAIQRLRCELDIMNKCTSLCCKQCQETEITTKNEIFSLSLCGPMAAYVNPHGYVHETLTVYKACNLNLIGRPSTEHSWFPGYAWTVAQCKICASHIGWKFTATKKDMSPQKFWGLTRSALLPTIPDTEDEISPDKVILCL
Chain of GSPT1 (Q16531 whole entry partner, the tested form may be a part): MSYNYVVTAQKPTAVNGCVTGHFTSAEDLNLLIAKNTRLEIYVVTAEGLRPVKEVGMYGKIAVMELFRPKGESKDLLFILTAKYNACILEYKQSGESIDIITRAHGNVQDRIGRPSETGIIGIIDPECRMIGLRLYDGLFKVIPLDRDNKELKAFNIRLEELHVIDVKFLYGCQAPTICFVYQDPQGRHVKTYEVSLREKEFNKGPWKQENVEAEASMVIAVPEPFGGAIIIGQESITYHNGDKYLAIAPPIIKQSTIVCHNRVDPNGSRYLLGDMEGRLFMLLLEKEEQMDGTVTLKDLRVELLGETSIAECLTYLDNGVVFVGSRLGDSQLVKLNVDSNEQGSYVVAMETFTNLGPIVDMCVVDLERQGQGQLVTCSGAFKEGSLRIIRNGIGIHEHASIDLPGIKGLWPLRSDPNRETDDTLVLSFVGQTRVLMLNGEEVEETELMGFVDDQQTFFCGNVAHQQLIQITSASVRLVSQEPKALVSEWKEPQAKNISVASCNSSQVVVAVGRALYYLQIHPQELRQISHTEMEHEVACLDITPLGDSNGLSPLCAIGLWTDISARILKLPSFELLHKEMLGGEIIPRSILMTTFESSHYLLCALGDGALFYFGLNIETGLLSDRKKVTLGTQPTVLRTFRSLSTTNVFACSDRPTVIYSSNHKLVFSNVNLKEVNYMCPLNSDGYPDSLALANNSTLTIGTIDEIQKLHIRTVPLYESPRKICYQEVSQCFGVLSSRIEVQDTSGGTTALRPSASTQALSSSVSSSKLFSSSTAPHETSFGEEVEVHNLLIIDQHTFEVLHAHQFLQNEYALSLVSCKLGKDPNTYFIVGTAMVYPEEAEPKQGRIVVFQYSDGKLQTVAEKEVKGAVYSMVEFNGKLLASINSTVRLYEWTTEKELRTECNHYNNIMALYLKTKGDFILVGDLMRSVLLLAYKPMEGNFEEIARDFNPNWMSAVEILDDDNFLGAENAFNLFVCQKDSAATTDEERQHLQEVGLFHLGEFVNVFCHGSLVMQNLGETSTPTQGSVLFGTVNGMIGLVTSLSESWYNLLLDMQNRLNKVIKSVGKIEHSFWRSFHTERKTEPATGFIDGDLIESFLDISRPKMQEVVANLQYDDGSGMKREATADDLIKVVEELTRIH
Chain of IKZF2 (Q9UKS7 whole entry): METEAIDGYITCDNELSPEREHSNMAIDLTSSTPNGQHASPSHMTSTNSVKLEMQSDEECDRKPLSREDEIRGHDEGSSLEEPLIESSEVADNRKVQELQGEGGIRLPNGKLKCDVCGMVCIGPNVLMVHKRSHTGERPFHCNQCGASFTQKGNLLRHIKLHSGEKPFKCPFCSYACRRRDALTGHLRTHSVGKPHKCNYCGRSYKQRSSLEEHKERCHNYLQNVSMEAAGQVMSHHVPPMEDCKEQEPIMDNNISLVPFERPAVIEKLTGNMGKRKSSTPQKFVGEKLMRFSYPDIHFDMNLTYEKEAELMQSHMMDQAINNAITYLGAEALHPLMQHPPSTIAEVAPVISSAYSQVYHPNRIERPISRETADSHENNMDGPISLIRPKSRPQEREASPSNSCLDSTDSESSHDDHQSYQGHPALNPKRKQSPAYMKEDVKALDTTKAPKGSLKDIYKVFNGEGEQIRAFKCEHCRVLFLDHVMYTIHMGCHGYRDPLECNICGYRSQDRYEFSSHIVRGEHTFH
Chain of IKZF2 (Q96SW2 whole entry): as the sequence (Q96SW2 whole entry, the tested form may be a part) above
Chain of IKZF2 (Q16531 whole entry partner): as the sequence (Q16531 whole entry partner, the tested form may be a part) above
Chain of IKZF1 (Q13422 whole entry): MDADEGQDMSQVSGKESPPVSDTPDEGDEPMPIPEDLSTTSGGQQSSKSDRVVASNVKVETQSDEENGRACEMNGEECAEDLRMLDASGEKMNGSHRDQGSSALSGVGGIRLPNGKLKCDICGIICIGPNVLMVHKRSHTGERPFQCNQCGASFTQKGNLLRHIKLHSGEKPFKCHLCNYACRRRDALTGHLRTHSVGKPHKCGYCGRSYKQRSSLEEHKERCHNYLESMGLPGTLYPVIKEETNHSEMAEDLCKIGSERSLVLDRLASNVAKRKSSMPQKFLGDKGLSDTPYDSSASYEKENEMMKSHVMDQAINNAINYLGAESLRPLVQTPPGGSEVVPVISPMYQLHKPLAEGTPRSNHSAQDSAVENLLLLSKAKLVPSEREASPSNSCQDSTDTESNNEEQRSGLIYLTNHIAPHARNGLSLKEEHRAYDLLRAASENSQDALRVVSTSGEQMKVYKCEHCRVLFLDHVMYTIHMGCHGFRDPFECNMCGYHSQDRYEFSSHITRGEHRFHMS
Chain of IKZF1 (Q96SW2 whole entry): as the sequence (Q96SW2 whole entry, the tested form may be a part) above
Chain of IKZF1 (Q16531 whole entry partner): as the sequence (Q16531 whole entry partner, the tested form may be a part) above

Row | inhibition at 10 µM [1, 4] [%] | DC50 [1, 5] [µM] | DC50 [2] [µM] | DC50 [3] [µM] | IKZF2 protein levels as compared to the control (DMSO) ([1]; Prolabel assay in HEK293GT cells, bar graph) | SMILES | inhibition at 10 µM [1, 6] [%]
1 | 5 |  | > 50 | > 50 |  | CC1(C)CC(c2ccc3c(c2)CN(C2CCC(=O)NC2=O)C3=O)CC(C)(C)N1 (stereo not drawn) [Compound I-171, 3-(1-oxo-5-(2,2,6,6-tetramethylpiperidin-4-yl)isoindolin-2-yl)piperidine-2,6-dione] | 
2 | 80 | 0.034 | > 30 | > 30 |  | O=C1CCC(N2Cc3cc(C4CCN(Cc5cn(C6CCC6)nn5)CC4)ccc3C2=O)C(=O)N1 (stereo not drawn) [Compound I-134, 3-(5-(1-((1-cyclobutyl-1H-1,2,3-triazol-4-yl)methyl)piperidin-4-yl)-1-oxoisoindolin-2-yl)piperidine-2,6-dione] | 
3 | 50 | 0.003 | > 50 | > 30 | decreased | COc1ncc(CN2CCC(c3ccc4c(c3)CN(C3CCC(=O)NC3=O)C4=O)CC2)cn1 (stereo not drawn) [Compound I-68, 3-(5-(1-((2-methoxypyrimidin-5-yl)methyl)piperidin-4-yl)-1-oxoisoindolin-2-yl)piperidine-2,6-dione] | 
4 | 80 | 0.023 | 0.14 | > 30 |  | CC(C)(C)c1cccc(CN2CCC(c3ccc4c(c3)CN(C3CCC(=O)NC3=O)C4=O)CC2)c1 (stereo not drawn) [Compound I-107, 3-(5-(1-(3-(tert-butyl)benzyl)piperidin-4-yl)-1-oxoisoindolin-2-yl)piperidine-2,6-dione] | 
5 | 75 | 0.017 | > 30 | > 30 |  | N#Cc1cccc(CN2CCC(c3ccc4c(c3)CN(C3CCC(=O)NC3=O)C4=O)CC2)c1 (stereo not drawn) [Compound I-36, 3-((4-(2-(2,6-dioxopiperidin-3-yl)-1-oxoisoindolin-5-yl)piperidin-1-yl)methyl)benzonitrile] | 

Further lines, the compound ahead of its results:

Row | SMILES | inhibition at 10 µM [1, 4] [%] | DC50 [1, 5] [µM] | DC50 [2] [µM] | DC50 [3] [µM] | IKZF2 protein levels as compared to the control (DMSO) ([1]; Prolabel assay in HEK293GT cells, bar graph) | inhibition at 10 µM [1, 6] [%]
6 | O=C1CCC(N2Cc3cc(C4CCN(Cc5cccc6c5CCCC6)CC4)ccc3C2=O)C(=O)N1 (stereo not drawn) [Compound I-164, 3-(1-oxo-5-(1-((5,6,7,8-tetrahydronaphthalen-1-yl)methyl)piperidin-4-yl)isoindolin-2-yl)piperidine-2,6-dione] | 50 | 0.018 | > 50 | > 50 |  | 
7 | O=C1CCC(N2Cc3cc(C4CCN(Cc5csc(-c6ccccc6)n5)CC4)ccc3C2=O)C(=O)N1 (stereo not drawn) [Compound I-211, 3-(1-oxo-5-(1-((2-phenylthiazol-4-yl)methyl)piperidin-4-yl)isoindolin-2-yl)piperidine-2,6-dione] | 80 | 0.024 | 0.039 | > 30 |  | 
8 | NC(=O)c1ccc(CN2CCC(c3ccc4c(c3)CN(C3CCC(=O)NC3=O)C4=O)CC2)cc1 (stereo not drawn) [Compound I-71, 4-((4-(2-(2,6-dioxopiperidin-3-yl)-1-oxoisoindolin-5-yl)piperidin-1-yl)methyl)benzamide] | 80 | 0.027 | > 30 | > 30 |  | 
9 | O=C1CCC(N2Cc3cc(C4CCN(c5ccccc5)CC4)ccc3C2=O)C(=O)N1 (stereo not drawn) [Compound I-170, 3-(1-oxo-5-(1-phenylpiperidin-4-yl)isoindolin-2-yl)piperidine-2,6-dione] |  |  | > 50 | > 50 |  | 5
10 | COc1ccc(CN2CCC(c3ccc4c(c3)CN(C3CCC(=O)NC3=O)C4=O)CC2)cc1 (stereo not drawn) [Compound I-39, 3-(5-(1-(4-methoxybenzyl)piperidin-4-yl)-1-oxoisoindolin-2-yl)piperidine-2,6-dione] |  |  | > 50 | > 50 |  | 45
11 | O=C1CCC(N2Cc3cc(C4CCN(Cc5ccc(F)c(F)c5)CC4)ccc3C2=O)C(=O)N1 (stereo not drawn) [Compound I-64, 3-(5-(1-(3,4-difluorobenzyl)piperidin-4-yl)-1-oxoisoindolin-2-yl)piperidine-2,6-dione] | 75 | 0.025 | > 30 | > 30 |  | 
